Assay results: PMC4500398, “All-Purpose Containers? Lipid-Binding Protein – Drug Interactions” (PLoS ONE, 2015)

Assays:
[1] = biological target: T1, c-FABPL (fatty acid-binding protein from G. gallus liver) (Gallus gallus, UniProt P80226); test: […]-NMR titration (n.O.e., T1) and competition with cholate; set-up: gene FABP1; purified from chicken liver, delipidated
T1 sequence (P80226 2-126): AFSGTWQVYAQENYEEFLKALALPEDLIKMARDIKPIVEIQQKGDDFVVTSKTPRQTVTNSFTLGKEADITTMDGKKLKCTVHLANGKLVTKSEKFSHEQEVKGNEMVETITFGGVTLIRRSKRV

[2] = biological target: T1, c-FABPL (fatty acid-binding protein from G. gallus liver); test: […]-NMR (T1, n.O.e.) and displacement by cholate; set-up: gene FABP1; purified from chicken liver, delipidated
[3] = biological target: T1, c-FABPL (fatty acid-binding protein from G. gallus liver); test: […]-NMR titration with […]-enriched ligand; […]-NMR competition; set-up: gene FABP1; apo protein, purified from chicken liver
[4] = biological target: T1, c-FABPL (fatty acid-binding protein from G. gallus liver); test: […]-NMR titration with […]-enriched ligand; set-up: gene FABP1; apo protein, purified from chicken liver

SMILES: CC(C)n1c(/C=C/[C@@H](O)C[C@@H](O)CC(=O)O)c(-c2ccc(F)cc2)c2ccccc21 (relative stereo) [compound 14, fluvastatin]
- 19F-NMR titration (n.O.e., T1) and competition with cholate [1]: Symmetric competition experiments between fluvastatin and cholate

SMILES: CCCCCCCCCCCCCCC(F)C(=O)O (stereo not shown) [16–17, 2-fluoropalmitate]
- 19F-NMR (T1, n.O.e.) and displacement by cholate [2]: only using a tenfold excess of cholate the ligand was completely removed from the protein

SMILES: C[C@H](CCC(=O)O)[C@H]1CC[C@H]2[C@@H]3[C@H](O)C[C@@H]4C[C@H](O)CC[C@]4(C)[C@H]3C[C@H](O)[C@]12C [compound 7, cholate]
- 13C-NMR titration with 13C-enriched ligand; 19F-NMR competition [3]: The titration indicates two sites of comparable affinity for cholate, and of different affinity for glycocholate

SMILES: C[C@H](CCC(=O)NCC(=O)O)[C@H]1CC[C@H]2[C@@H]3[C@H](O)C[C@@H]4C[C@H](O)CC[C@]4(C)[C@H]3C[C@H](O)[C@]12C [glycocholate]
- 13C-NMR titration with 13C-enriched ligand [4]: The titration indicates two sites of comparable affinity for cholate, and of different affinity for glycocholate
